The target of test [1] is T1, FKBP12 (Homo sapiens (Human), UniProt P62942). Put plainly: SPR binding of compound (analyte) to immobilized FKBP12 (Example 7). Conditions: 25° C., 12×HIS tagged FKBP12 immobilized on NTA chip; read-out: SPR affinity to FKBP12: KD. How it is done:
This protocol utilizes Surface Plasmon Resonance (SPR) as a method to determine kinetics (KD, Ka, Kd) for the binding of compound (analyte) to immobilized FKBP12 (ligand).
Compound in 100% DMSO (in-house), 10×HBS-P+ buffer (GE Healthcare BR-1006-71), Assay buffer (1×HBS-P+ buffer, 1% DMSO), 12×HIS tagged FKBP12 (in-house).
(§1) Experiments are performed at 25° C. Stock solution of 12×HIS tagged FKBP12 is diluted to 100 nM in assay buffer (1% DMSO final). Approximately 500-600 RU of FKBP12 is immobilized on one of two flow cells of an activated NTA chip. The second flow cell is not activated as a reference for non-specific interaction of the analyte to the sensor chip. Various concentrations of compound (1 nM-1 μM range), serially diluted into the same assay buffer (1% DMSO final), are injected onto the FKBP12 surface and reference surface at a flow rate of 10 μl/min. The surface is regenerated between analyte injections with 350 mM EDTA.
(§2) The BiaEvaluation software program is used for data fitting. All data is reference subtracted against both the reference flow cell and a buffer injection. For kinetic analyses, data is locally fit to a 1:1 interaction model.

Test [2] has as its target T1, FKBP12. Put plainly: SPR kinetics of Compound 2 and Compound 6 binding to immobilized FKBP12 (Example 8). Conditions: compound to immobilized FKBP12, 25° C. How it is done:
This protocol utilizes Surface Plasmon Resonance (SPR) as a method to determine kinetics (KD, Ka, Kd) for the binding of Compound 2 and Compound 6 (analyte) to immobilized FKBP12 (ligand).
Compound 2 and Compound 6 in 100% DMSO (in-house), 10×HBS-P+ buffer (GE Healthcare BR-1006-71), Assay buffer (1×HBS-P+ buffer, 1% DMSO), 12×HIS tagged FKBP12 (in-house).
as §1, with “Compound 2 or Compound 6” for “compound”
as §2

Test [3] concerns the target T2, CEP25011.4 (residues 2134-2231) (Homo sapiens (Human), UniProt P62942+Q9BV73). Put plainly: SPR binding of CEP250 (analyte) to immobilized FKBP12-Compound 2 binary complex. Conditions: FKBP12/Compound 2 complex binding to CEP25011.4, SPR, 1 μM compound. How it is done:
(§3) This protocol utilizes Surface Plasmon Resonance (SPR) as a method to determine kinetics (KD, Ka, Kd) for the binding of CEP250 (analyte) to immobilized FKBP12-Compound 2 binary complex (ligand).
(§4) Compound 2 in 100% DMSO (in-house), 10×HBS-P+ buffer (GE Healthcare BR-1006-71), Assay buffer (1×HBS-P+ buffer, 1% DMSO, 1 μM Compound 2), 12×HIS tagged FKBP12 (in-house), CEP25029.2 (residues 1982-2231) and CEP25011.4 (residues 2134-2231) (in-house).
as §1, with “buffer containing 1 μM Compound 2” for “buffer”, “200-400” for “500-600”, “CEP250” for “compound”
as §2

Test [4] addresses CEP25029.2 (residues 1982-2231) (Homo sapiens (Human), UniProt P62942+Q9BV73). The description is as above. Conditions: FKBP12/Compound 2 complex binding to CEP25029.2, SPR, 1 μM compound. How it is done: as §3, §4
as §1, with “buffer containing 1 μM Compound 2” for “buffer”, “200-400” for “500-600”, “CEP250” for “compound”
as §2

In test [5] the target is T2, CEP25011.4 (residues 2134-2231). Put plainly: ITC binding of FKBP12-compound binary complex to CEP250. How it is done:
(§5) This protocol utilizes Isothermal Titration Calorimetry (ITC) to directly measure the heat change associated with binding of FKBP12-Compound 2 and FKBP12-Compound 6 binary complexes to CEP250. Measurement of the heat change allows accurate determination of association constants (Ka), reaction stoichiometry (N), and the change in binding enthalpy (ΔH).
(§6) Compound 2 and Compound 6 in 100% DMSO (in-house), Protein Buffer (10 mM HEPES, pH 7.5, 75 mM NaCl, 0.5 mM TCEP), assay buffer (protein buffer+1% DMSO), FKBP12 (in-house), CEP25029.4 (residues 1982-2231) and CEP25011.4 (residues 2134-2231) (in-house).
(§7) MicroCal™ ITC200 (GE Healthcare) Experimental Protocol: FKBP12 stock solution was diluted to 10 μM in assay buffer (1% DMSO final). Compound was added to FKBP12 to 20 μM (1% DMSO final), and binary complex was filled into the reaction cell of the ITC device after 5-10 min pre-incubation time. CEP250 protein stocks were diluted to 50 μM in assay buffer and supplemented with 20 μM compound (1% DMSO final) before being filled into the injection syringe. A control experiment in the absence of compound was also run to determine the heat associated with operational artifacts and the dilution of titrant as it was injected from the syringe into the reaction cell.

Test [6] deals with CEP25029.4 (residues 1982-2231) (Homo sapiens (Human), UniProt P62942+Q9BV73). Described as above. How it is done: as §5, §6, §7
CEP25029.4 (residues 1982-2231), sequence (Q9BV73 1982-2231): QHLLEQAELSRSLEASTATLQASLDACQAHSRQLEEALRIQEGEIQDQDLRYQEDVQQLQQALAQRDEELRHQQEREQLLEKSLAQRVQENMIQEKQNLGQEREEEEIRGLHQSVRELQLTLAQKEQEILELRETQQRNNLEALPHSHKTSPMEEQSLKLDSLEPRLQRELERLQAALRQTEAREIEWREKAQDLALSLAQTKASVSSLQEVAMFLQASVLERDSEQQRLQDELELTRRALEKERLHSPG
CEP25029.4 (residues 1982-2231), sequence (P62942 whole entry, the tested form may be a part): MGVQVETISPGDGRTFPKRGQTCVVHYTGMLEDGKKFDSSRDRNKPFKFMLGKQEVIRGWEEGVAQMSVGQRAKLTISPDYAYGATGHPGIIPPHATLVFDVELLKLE

T2 sequence (Q9BV73 2134-2231): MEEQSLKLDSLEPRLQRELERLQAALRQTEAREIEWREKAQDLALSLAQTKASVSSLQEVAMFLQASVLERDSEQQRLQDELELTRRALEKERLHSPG
T2 sequence (P62942 whole entry, the tested form may be a part): as the sequence (P62942 whole entry, the tested form may be a part) above
T1 sequence (P62942 whole entry): as the sequence (P62942 whole entry, the tested form may be a part) above
CEP25029.2 (residues 1982-2231), sequence (Q9BV73 1982-2231): as the sequence (Q9BV73 1982-2231) above
CEP25029.2 (residues 1982-2231), sequence (P62942 whole entry, the tested form may be a part): as the sequence (P62942 whole entry, the tested form may be a part) above

Turning to `CC[C@H](Cc1ccccc1)[C@@H]1/C=C/C/C=C/C[C@@H](C)[C@H](O)[C@@H](C)[C@@H]2CC[C@@H](C)C(=O)C(O)(O2)C(=O)N2CCCC[C@H]2C(=O)O1` [Compound 2], the Kd on FKBP12 [1] is 12.6 nM; at FKBP12 [2], 13.2 nM; in test [3] it was 0.00309 s⁻¹; in test [5], 70 nM; in test [6], 190 nM. In addition, the koff on FKBP12 [2] was 0.000594 s⁻¹; in test [4], 9.25e-05 s⁻¹. For the same compound, the kon on FKBP12 [2] (read-out: Ka) was 45000 M⁻¹ s⁻¹; in test [3] (read-out: Ka), 571000 M⁻¹ s⁻¹; in test [4] (read-out: Ka) it was 311000 M⁻¹ s⁻¹. Besides, the ΔH is -11.8 kcal/mol in test [5] (ITC, FKBP12 10 μM in cell, CEP25011.4 68 μM in syringe, ligand 20 μM, 298 K) and -12.48 kcal/mol in test [6] (ITC, FKBP12 10 μM in cell, CEP25029.4 118 μM in syringe, ligand 20 μM, 298 K). In addition, the ΔG in test [5] (ITC, FKBP12 10 μM, CEP25011.4 68 μM, ligand 20 μM, 298 K, ΔG = −RT ln Ka) is -9.739 kcal/mol; in test [6] (ITC, FKBP12 10 μM, CEP25029.4 118 μM, ligand 20 μM, 298 K, ΔG = −RT ln Ka) it was -9.18 kcal/mol. Also, the “−T*ΔS” value in test [5] (ITC, FKBP12 10 μM, CEP25011.4 68 μM, ligand 20 μM, 298 K, −TΔS = ΔG − ΔH) was 2.06 kcal/mol; in test [6] (ITC, FKBP12 10 μM, CEP25029.4 118 μM, ligand 20 μM, 298 K, −TΔS = ΔG − ΔH) it was 3.298 kcal/mol.

The values above are taken from patent publication US11059830B2, “Compounds that participate in cooperative binding and uses thereof” (Revolution Medicines, Inc., priority 2015, dated 2021).
